Measurements as given in patent publication US20260285850A1, “SUBSTITUTED OXAZOLIDINONES AND IMIDAZOLINONES AS HERBICIDES” (FMC CORPORATION, priority 2023, published 2026).

Assays:
Type in all cases: in vivo
[1] = test system: barnyardgrass (Echinochloa crus-galli); assay: Test A preemergence soil spray, visual injury rating 0-100; settings: 10 days, 0 = no effect, 100 = complete control
Summary of the method: (§1)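 Rating: visual, day 10, untreated plants as reference, 0 no effect to 100 full control. Plants were in loam-sand and were treated either preemergence via directed soil spray or postemergence at the one- to two-leaf stage.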

[2] = test system: blackgrass (Alopecurus myosuroides); assay: as above; settings: 10 days, 0 = no effect, 100 = complete control
Summary of the method: as §1

[3] = test system: corn (Zea mays); assay: as above; settings: 10 days, 0 = no effect, 100 = complete control
Summary of the method: as §1

[4] = test system: green foxtail (Setaria viridis); assay: as above; settings: 10 days, 0 = no effect, 100 = complete control
Summary of the method: as §1

[5] = test system: kochia (Bassia scoparia); assay: as above; settings: 10 days, 0 = no effect, 100 = complete control
Summary of the method: as §1

[6] = test system: oat, wild (wild oat, Avena fatua); assay: as above; settings: 10 days, 0 = no effect, 100 = complete control
Summary of the method: as §1

[7] = test system: palmer (palmer amaranth, palmer pigweed, Amaranthus palmeri); assay: as above; settings: 10 days, 0 = no effect, 100 = complete control
Summary of the method: as §1

[8] = test system: ragweed (common ragweed, Ambrosia artemisiifolia); assay: as above; settings: 10 days, 0 = no effect, 100 = complete control
Summary of the method: as §1

[9] = test system: ryegrass, Italian (italian ryegrass, Lolium multiflorum); assay: as above; settings: 10 days, 0 = no effect, 100 = complete control
Summary of the method: as §1

[10] = test system: soybean (Glycine max); assay: as above; settings: 10 days, 0 = no effect, 100 = complete control
Summary of the method: as §1

[11] = test system: wheat (Triticum aestivum); assay: as above; settings: 10 days, 0 = no effect, 100 = complete control
Summary of the method: as §1

[12] = test system: barnyardgrass (Echinochloa crus-galli); assay: Test A postemergence application, visual injury rating 0-100; settings: Postemergence
Summary of the method: as §1

[13] = test system: blackgrass (Alopecurus myosuroides); assay: as above; settings: Postemergence
Summary of the method: as §1

[14] = test system: corn (Zea mays); assay: as above; settings: Postemergence
Summary of the method: as §1

[15] = test system: galium (catchweed bedstraw, Galium aparine); assay: as above; settings: Postemergence
Summary of the method: as §1

[16] = test system: green foxtail (Setaria viridis); assay: as above; settings: Postemergence
Summary of the method: as §1

[17] = test system: horseweed (Erigeron canadensis); assay: as above; settings: Postemergence
Summary of the method: as §1

[18] = test system: kochia (Bassia scoparia); assay: as above; settings: Postemergence
Summary of the method: as §1

[19] = test system: oat, wild (wild oat, Avena fatua); assay: as above; settings: Postemergence
Summary of the method: as §1

[20] = test system: palmer (palmer amaranth, palmer pigweed, Amaranthus palmeri); assay: as above; settings: Postemergence
Summary of the method: as §1

[21] = test system: ragweed (common ragweed, Ambrosia artemisiifolia); assay: as above; settings: Postemergence
Summary of the method: as §1

[22] = test system: ryegrass, Italian (italian ryegrass, Lolium multiflorum); assay: as above; settings: Postemergence
Summary of the method: as §1

[23] = test system: soybean (Glycine max); assay: as above; settings: Postemergence
Summary of the method: as §1

[24] = test system: wheat (Triticum aestivum); assay: as above; settings: Postemergence
Summary of the method: as §1

[25] = test system: barnyardgrass (Echinochloa crusgalli); assay: Test B flooded paddy test, visual plant response rating 0-100; settings: 250 g ai/ha, Flood, applied to paddy water, evaluated after 13 days
Summary of the method: (§2)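 In this flooded assay, 2-leaf seedlings received compound through the water layer, kept at 3 cm over the soil. Plants were held 13 days in a greenhouse and then visually compared with control pots.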

[26] = test system: ducksalad (Heteranthera limosa); assay: as above; settings: 250 g ai/ha, Flood, applied to paddy water, evaluated after 13 days
Summary of the method: as §2

[27] = test system: rice (Oryza sativa); assay: as above; settings: 250 g ai/ha, Flood, applied to paddy water, evaluated after 13 days
Summary of the method: as §2

[28] = test system: sedge, umbrella (small-flower umbrella sedge, Cyperus difformis); assay: as above; settings: 250 g ai/ha, Flood, applied to paddy water, evaluated after 13 days
Summary of the method: as §2

[29] = 31 g ai/ha, greenhouse 10 days, 0 no effect, 100 complete control
[30] = 125 g ai/ha, 10 days, 0 is no effect, 100 is complete control

SMILES: CC1(C(=O)NC2C=CC(C(=O)OCC(F)(F)F)C2)CN(c2cc(Cl)cc(Cl)c2)C(=O)O1 (stereo not shown) [Compound 64]
- Barnyardgrass plant response rating (0-100) ([1]; 31 g ai/ha): 80
- Barnyardgrass plant response rating (0 to 100 scale) ([1]; 125 g ai/ha): 90
- Blackgrass plant response rating (0-100) ([2]; 31 g ai/ha): 20
- Blackgrass plant response rating (0 to 100 scale) ([2]; 125 g ai/ha): 70
- Corn plant response rating (0-100) ([3]; 31 g ai/ha): 0
- Corn plant response rating (0 to 100 scale) ([3]; 125 g ai/ha): 80
- Foxtail, Green plant response rating (0-100) ([4]; 31 g ai/ha): 70
- Foxtail, Green plant response rating (0 to 100 scale) ([4]; 125 g ai/ha): 90
- Kochia plant response rating (0-100) ([5]; 31 g ai/ha): 50
- Kochia plant response rating (0 to 100 scale) ([5]; 125 g ai/ha): 90
- Oat, Wild plant response rating (0-100) ([6]; 31 g ai/ha): 20
- Oat, Wild plant response rating (0 to 100 scale) ([6]; 125 g ai/ha): 50
- Amaranth, Palmer plant response rating (0-100) ([7]; 31 g ai/ha): 100
- Amaranth, Palmer plant response rating (0 to 100 scale) ([7]; 125 g ai/ha): 100
- Ragweed plant response rating (0-100) ([8]; 31 g ai/ha): 0
- Ragweed plant response rating (0 to 100 scale) ([8]; 125 g ai/ha): 80
- Ryegrass, Italian plant response rating (0-100) ([9]; 31 g ai/ha): 50
- Ryegrass, Italian plant response rating (0 to 100 scale) ([9]; 125 g ai/ha): 90
- Soybean plant response rating (0-100) ([10]; 31 g ai/ha): 0
- Soybean plant response rating (0 to 100 scale) ([10]; 125 g ai/ha): 40
- Wheat plant response rating (0-100) ([11]; 31 g ai/ha): 60
- Wheat plant response rating (0 to 100 scale) ([11]; 125 g ai/ha): 90
- Barnyardgrass plant response rating (0 to 100 scale) [12, 29]: 100
- Barnyardgrass plant response rating (0 to 100 scale) [12, 30]: 100
- Blackgrass plant response rating (0 to 100 scale) [13, 29]: 90
- Blackgrass plant response rating (0 to 100 scale) [13, 30]: 90
- Corn plant response rating (0 to 100 scale) [14, 29]: 90
- Corn plant response rating (0 to 100 scale) [14, 30]: 100
- Galium plant response rating (0 to 100 scale) [15, 29]: 80
- Galium plant response rating (0 to 100 scale) [15, 30]: 80
- Foxtail, Green plant response rating (0 to 100 scale) [16, 29]: 90
- Foxtail, Green plant response rating (0 to 100 scale) [16, 30]: 90
- Horseweed plant response rating (0 to 100 scale) [17, 29]: 50
- Horseweed plant response rating (0 to 100 scale) [17, 30]: 80
- Kochia plant response rating (0 to 100 scale) [18, 29]: 80
- Kochia plant response rating (0 to 100 scale) [18, 30]: 80
- Oat, Wild plant response rating (0 to 100 scale) [19, 29]: 90
- Oat, Wild plant response rating (0 to 100 scale) [19, 30]: 90
- Amaranth, Palmer / Pigweed, Palmer plant response rating (0 to 100 scale) [20, 29]: 90
- Amaranth, Palmer / Pigweed, Palmer plant response rating (0 to 100 scale) [20, 30]: 90
- Ragweed plant response rating (0 to 100 scale) [21, 29]: 50
- Ragweed plant response rating (0 to 100 scale) [21, 30]: 80
- Ryegrass, Italian plant response rating (0 to 100 scale) [22, 29]: 80
- Ryegrass, Italian plant response rating (0 to 100 scale) [22, 30]: 90
- Soybean plant response rating (0 to 100 scale) [23, 29]: 80
- Soybean plant response rating (0 to 100 scale) [23, 30]: 90
- Wheat plant response rating (0 to 100 scale) [24, 29]: 90
- Wheat plant response rating (0 to 100 scale) [24, 30]: 90
- Plant response rating, Barnyardgrass (0 to 100 scale, 0 is no effect and 100 is complete control) [25]: 50
- Plant response rating, Ducksalad (0 to 100 scale, 0 is no effect and 100 is complete control) [26]: 90
- Plant response rating, Rice (0 to 100 scale, 0 is no effect and 100 is complete control) [27]: 15
- Plant response rating, Sedge, Umbrella (0 to 100 scale, 0 is no effect and 100 is complete control) [28]: 75
